The experiment concerns the target Recombinant human liver glucokinase (FLAG fusion protein) (Homo sapiens (Human), UniProt P35557). Kind of experiment: glucokinase (GK) activation assay, Thio-NADH formation coupled to G6PDH, absorbance at 405 nm. The class given is biochemical. As to conditions: 2.5 mM Glu; for EC50: 30° C.; for Emax: OD value of DMSO control regarded as 100%. An excerpt: The glucokinase activity can, for instance, be determined without directly measuring glucose-6-phosphate by measuring the amount of Thio-NADH generated during the production of phosphogluconolactone from glucose-6-phosphate by a reporter enzyme glucose-6-phosphate dehydrogenase.
To test the exemplified compounds, the following assay was employed. Recombinant human liver glucokinase was expressed as a FLAG fusion protein in E. coli, and purified on ANTIFLAG M2 AFFINITY GEL (Sigma). The assay was carried out at 30° C. in a 96-well plate. In the plate was distributed 69 μl each of assay buffer (25 mM Hepes Buffer: pH=7.2, 2 mM MgCl2, 1 mM ATP, 0.5 mM TNAD, 1 mM dithiothreitol), to which was added 1 μl of a DMSO solution of the compound or DMSO as control. Then, 20 μl of pre-ice-cooled enzyme mixture (FLAG-GK, 20 U/ml G6PDH) was distributed thereto, to which was added 10 μl of 25 mM glucose as substrate to initiate the reaction (final glucose concentration=2.5 mM). After starting the reaction, the absorbance at 405 nm was measured every 30 seconds for 10 minutes to evaluate the compound based on the initial increase for 5 minutes. FLAG-GK was added so that the increase of absorbance after 5 minutes fell between 0.05 to 0.1 in the presence of 1% DMSO.
The OD values of the respective compounds were measured in the respective concentrations, wherein the OD value of DMSO as control is regarded as 100%. From the OD values at the respective concentrations, Emax (%, 2.5 mM Glu) and EC50 (nM, 2.5 mM Glu) were calculated and used as indicators of the GK activation capability of the compounds. According to the above assay, the GK activation capability of the exemplified compounds of the present invention was determined. […] Where different enantiomers of the same compound were tested, two numbers are provided. Where 3 numbers are provided, for example, Ex. #30, data for the racemic form is also shown.

Where two headings read alike, the source gives them in different places.

Broadly, the EC50 is the concentration giving half of the maximal effect. For orientation: Emax means the maximal effect, on the per cent scale that the assay sets.

Sequence of Recombinant human liver glucokinase (FLAG fusion protein) (P35557 other isoform, or with tags, fused parts or gaps): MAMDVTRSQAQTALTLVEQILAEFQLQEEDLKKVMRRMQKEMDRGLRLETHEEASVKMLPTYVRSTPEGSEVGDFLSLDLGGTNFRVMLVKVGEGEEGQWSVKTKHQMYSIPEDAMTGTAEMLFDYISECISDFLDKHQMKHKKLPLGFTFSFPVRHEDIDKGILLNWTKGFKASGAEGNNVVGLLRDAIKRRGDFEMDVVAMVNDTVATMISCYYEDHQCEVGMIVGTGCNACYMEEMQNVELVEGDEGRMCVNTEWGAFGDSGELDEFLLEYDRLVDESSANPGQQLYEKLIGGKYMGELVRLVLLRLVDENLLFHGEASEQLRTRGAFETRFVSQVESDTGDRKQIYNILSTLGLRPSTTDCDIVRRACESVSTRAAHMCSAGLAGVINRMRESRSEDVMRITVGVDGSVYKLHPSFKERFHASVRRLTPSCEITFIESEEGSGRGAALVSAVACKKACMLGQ

With `CCS(=O)(=O)c1ccc(Oc2cc3cc(-c4ccc(CCC(=O)OC)cn4)[nH]c3cc2C2CCC(=O)N2C)cc1` (stereo not drawn) [Example 1, METHYL 3-(6-{5-[4-(ETHYLSULFONYL)PHENOXY]-6-(1-METHYL-5-OXOPYRROLIDIN-2-YL)-1H-INDOL-2-YL}PYRIDIN-3-YL)PROPANOATE], the EC50 was 1.9 nM. The Emax (read-out: Emax) came out at 624%.
The like results for `CCS(=O)(=O)c1ccc(Oc2cc3cc(-c4ccc(CCC(=O)O)cn4)[nH]c3cc2C2CCC(=O)N2C)cc1` (stereo not drawn) [Example 2, 3-(6-{5-[4-(ETHYLSULFONYL)PHENOXY]-6-(1-METHYL-5-OXOPYRROLIDIN-2-YL)-1H-INDOL-2-YL}PYRIDIN-3-YL)PROPANOIC ACID] were, in that order, 53.4 nM and 652%.
As for `CCS(=O)(=O)c1ccc(Oc2cc3cc(-c4ccc(C(F)(F)F)cn4)[nH]c3cc2C2CCC(=O)N2CC(=O)O)cc1` (stereo not drawn) [Example 3, (2-{5-[4-(ETHYLSULFONYL)PHENOXY]-2-[5-(TRIFLUOROMETHYL)PYRIDIN-2-YL]-1H-INDOL-6-YL}-5-OXOPYRROLIDIN-1-YL)ACETIC ACID], the EC50 was 797 nM. For the same compound, under “read-out: Emax”, the Emax was determined as 628%.
As for `COC(=O)CCc1ccc(Oc2cc3cc(-c4ccc(C(F)(F)F)cn4)[nH]c3cc2C2CCC(=O)N2C)cc1` (stereo not drawn) [Example 4, METHYL 3-[4-({6-(1-METHYL-5-OXOPYRROLIDIN-2-YL)-2-[5-(TRIFLUORO-METHYL)PYRIDIN-2-YL]-1H-INDOL-5-YL}OXY)PHENYL]PROPIONATE], the Emax is recorded as 453.8%. Moreover, the Emax (read-out: Emax) is 455%.
Turning to `CS(=O)(=O)c1ccc(Oc2cc3cc(-c4ccc(CCC(=O)O)cn4)[nH]c3cc2Oc2ccccc2F)cc1` [Example 7, 3-(6-{6-(2-FLUOROPHENOXY)-5-[4-(METHYLSULFONYL)PHENOXY]-1H-INDOL-2-YL}PYRIDIN-3-YL)PROPANOIC ACID], the EC50 turned out to be 774 nM. Also, the Emax (read-out: Emax) was found to be 15.7%.
`CN1C(=O)CCC1c1cc2[nH]c(-c3ccc(C(=O)NCCC(=O)O)cn3)cc2cc1Oc1ccc(S(C)(=O)=O)nc1` (stereo not drawn) [Example 8, N-({6-[6-(1-METHYL-5-OXOPYRROLIDIN-2-YL)-5-{[6-(METHYL-SULFONYL)PYRIDIN-3-YL]OXY}-1H-INDOL-2-YL]PYRIDIN-3-YL}-CARBONYL)-β-ALANINE]: the EC50 was 116 nM. The maximal effect (Emax) (read-out: Emax) stood at 501%.
With `CS(=O)(=O)c1ccc(Oc2cc3cc(-c4ccc(CCC(=O)O)cn4)[nH]c3nc2CN2CCCC2=O)cn1` [Example 9, 3-[6-(5-{[6-(METHYLSULFONYL)PYRIDIN-3-YL]OXY}-6-[(2-OXOPYRROLIDIN-1-YL)METHYL]-1H-PYRROLO[2,3-B]PYRIDIN-2-YL)PYRIDIN-3-YL]PROPANOIC ACID], the EC50 is 533 nM.
Regarding `COC(=O)CCc1ccc(-c2cc3cc(Oc4ccc(C(=O)N5CCC5)nc4)c(C4CCCN4C(C)=O)cc3[nH]2)nc1` (stereo not drawn) [Example 10, METHYL 3-{6-[6-(1-ACETYLPYRROLIDIN-2-YL)-5-{[6-(AZETIDIN-1-YLCARBONYL)PYRIDIN-3-YL]OXY}-1H-INDOL-2-YL]PYRIDIN-3-YL}PROPANOATE], the EC50 was determined as 13.9 nM. The maximum response (Emax) (read-out: Emax) was found to be 419%.
For `CC(=O)N1CCCC1c1cc2[nH]c(-c3ccc(CCC(=O)O)cn3)cc2cc1Oc1ccc(C(=O)N2CCC2)nc1` (stereo not drawn) [Example 11, 3-{6-[6-(1-ACETYLPYRROLIDIN-2-YL)-5-{[6-(AZETIDIN-1-YLCARBONYL)PYRIDIN-3-YL]OXY}-1H-INDOL-2-YL]PYRIDIN-3-YL}PROPANOIC ACID], the EC50 came to 187 nM. Further, the Emax (read-out: Emax) worked out at 410%.
With `CCS(=O)(=O)c1ccc(Oc2cc3cc(-c4ccc(P(C)(=O)O)cn4)[nH]c3cc2C2CCC(=O)N2C)cc1` (stereo not drawn) [Example 12, (6-(5-(4-(ETHYLSULFONYL)PHENOXY)-6-(1-METHYL-5-OXOPYRROLIDIN-2-YL)-1H-INDOL-2-YL)PYRIDIN-3-YL)(METHYL)PHOSPHINIC ACID], the EC50 worked out at 53.6 nM. Besides, the Emax (read-out: Emax) was found to be 614%.
Consider `CN1C(=O)CCC1c1cc2[nH]c(-c3ccc(CC(C)(C)C(=O)O)cn3)cc2cc1Oc1ccc(S(C)(=O)=O)nc1` (stereo not drawn) [Example 17, 2,2-dimethyl-3-(6-(6-(1-methyl-5-oxopyrrolidin-2-yl)-5-((6-(methylsulfonyl)pyridin-3-yl)oxy)-1H-indol-2-yl)pyridin-3-yl)propanoic acid], for which the EC50 is 108 nM. The Emax (read-out: Emax) came to 643%.
Regarding `CN1C(=O)CCC1c1cc2[nH]c(-c3ccc(OCC(=O)O)cn3)cc2cc1Oc1ccc(S(C)(=O)=O)nc1` (stereo not drawn) [Example 18, 2-((6-(6-(1-methyl-5-oxopyrrolidin-2-yl)-5-((6-(methylsulfonyl)pyridin-3-yl)oxy)-1H-indol-2-yl)pyridin-3-yl)oxy)acetic acid], the EC50 was 81 nM. In addition, the Emax (read-out: Emax) turned out to be 612%.
The like results for `COCc1ccc(Oc2cc3cc(-c4ccc(CCC(=O)O)cn4)[nH]c3cc2C2CCC(=O)N2C)cn1` (stereo not drawn) [Example 19, 3-(6-(5-((6-(methoxymethyl)pyridin-3-yl)oxy)-6-(1-methyl-5-oxopyrrolidin-2-yl)-1H-indol-2-yl)pyridin-3-yl)propanoic acid] were, in that order, 71.8 nM and 431%.
For the compound `CN1C(=O)CCC1c1cc2[nH]c(-c3ccc(C(F)(F)F)cn3)cc2cc1Oc1ccc(CC(=O)O)cc1` (stereo not drawn) [Example 20, 2-(4-((6-(1-methyl-5-oxopyrrolidin-2-yl)-2-(5-(trifluoromethyl)pyridin-2-yl)-1H-indol-5-yl)oxy)phenyl)acetic acid], the EC50 was 63.9 nM. The maximal response (Emax) (read-out: Emax) is 521%.
For the compound `CN1C(=O)CCC1c1cc2[nH]c(-c3cnccn3)cc2cc1Oc1ccc(CCC(=O)O)cc1` (stereo not drawn) [Example 21, 3-(4-((6-(1-methyl-5-oxopyrrolidin-2-yl)-2-(pyrazin-2-yl)-1H-indol-5-yl)oxy)phenyl)propanoic acid], the EC50 is 39.1 nM. For the same compound, the Emax (read-out: Emax) came to 628%.
Regarding `CN1C(=O)CCC1c1cc2[nH]c(-c3ccccc3)cc2cc1Oc1ccc(CCC(=O)O)cc1` (stereo not drawn) [Example 22, 3-(4-((6-(1-methyl-5-oxopyrrolidin-2-yl)-2-phenyl-1H-indol-5-yl)oxy)phenyl)propanoic acid], the EC50 amounted to 456 nM. For the same compound, the Emax (read-out: Emax) was 410%.
As to `COC(=O)CCc1ccc(Oc2cc3cc(-c4cnccn4)[nH]c3cc2C2CCC(=O)N2C)cc1` (stereo not drawn) [Example 23, methyl 3-(4-((6-(1-methyl-5-oxopyrrolidin-2-yl)-2-(pyrazin-2-yl)-1H-indol-5-yl)oxy)phenyl)propanoate], the EC50 was found to be 2.1 nM. The Emax (read-out: Emax) was 574%.
For the compound `COC(=O)Cc1ccc(Oc2cc3cc(-c4ccccn4)[nH]c3cc2C2CCC(=O)N2C)cc1` (stereo not drawn) [Example 25, methyl 2-(4-((6-(1-methyl-5-oxopyrrolidin-2-yl)-2-(pyridin-2-yl)-1H-indol-5-yl)oxy)phenyl)acetate], the EC50 worked out at 21 nM. Besides, the Emax (read-out: Emax) stood at 649%.
Take `COC(=O)CCc1ccc(Oc2cc3cc(-c4ccccn4)[nH]c3cc2C2CCC(=O)N2C)cc1` (stereo not drawn) [Example 26, methyl 3-(4-((6-(1-methyl-5-oxopyrrolidin-2-yl)-2-(pyridin-2-yl)-1H-indol-5-yl)oxy)phenyl)propanoate]: the concentration for a half-maximal effect (EC50) was found to be 4.3 nM. Moreover, the Emax (read-out: Emax) came out at 545%.
For `CN1C(=O)CCC1c1cc2[nH]c(-c3ccccn3)cc2cc1Oc1ccc(CC(=O)O)cc1` (stereo not drawn) [Example 27, 2-(4-((6-(1-methyl-5-oxopyrrolidin-2-yl)-2-(pyridin-2-yl)-1H-indol-5-yl)oxy)phenyl)acetic acid], the EC50 came to 23.8 nM. In addition, the Emax (read-out: Emax) amounted to 630%.

Values taken from patent US9453038B2, “Glucokinase activator compounds, compositions containing such compounds, and methods of treatment” (Merck Sharp & Dohme Corp., priority 2012, dated 2016).
